14 compounds from US20210000727A1, “DITHIAZOCANE COMPOUNDS FOR THE COSMETIC USE THEREOF” (L'OREAL, priority 2017, published 2021) can be followed below.

SMILES strings stand for the structures. A value given as a limit tells only on which side of the number the result lay.

In data set [1] the test system is coculture of keratinocytes and melanocytes. Put plainly: Coculture experiment: melanogenesis-modulating effect and cytotoxicity. It counts as cell-based. Particulars: for IC50: melanin optical density, read-out: IC50 (concentration for which 50% of the melanin synthesis is inhibited). On the procedure: The melanogenesis-modulating effect of compound 1 was measured according to the method described in patent FR-A-2734825, and also in the article by R. Schmidt, P. Krien and M. Régnier, Anal. Biochem., 235(2), 113-18, 1996. This test is performed on a coculture of keratinocytes and melanocytes.
The following were determined for the test compound: • the cytotoxicity, • the inhibitory activity on melanin synthesis, by estimating the melanin optical density.
The IC50 values (concentration for which 50% of the melanin synthesis is inhibited) were determined.

A further data set has as its system normal human melanocytes. Put plainly: Depigmenting activity (reduction of melanin production) in normal human melanocytes in vitro. The format is cell-based. Particulars: Melanocyte, 72 hours incubation, optical density of melanin, maximum concentration tested 200 μM, read-out: IC50 (concentration at which a 50% decrease in melanin synthesis is achieved). Here is the method: The measurement of the depigmenting activity (reduction of melanin production) of compounds of formula (I) was performed by assaying normal human melanocytes in vitro as follows.
First of all, normal human melanocytes are cultured and dispensed into wells. After 24 hours, the culture medium was replaced with a medium containing compounds of formula (I) to be evaluated. The cells were incubated 72 hours before measurement of the final optical density, which measures the amount of melanin produced by the melanocytes. A dose effect is performed using a wide concentration range of the compounds evaluated. Thus, by making the concentrations and the melanin measurements correspond, it is possible to determine an IC50 in μM: concentration at which a 50% decrease in melanin synthesis is achieved.
Various test campaigns were conducted and the results collated in the table below.

Data set [2] deals with pigmented reconstructed epidermis. Put plainly: Depigmenting activity on pigmented reconstructed epidermis (melanin quantified by image analysis, Fontana Masson). It counts as cell-based, human. Particulars: 300 μM in DMSO, control DMSO, Mann-Whitney test, pValue<0.05. On the procedure: Compositions comprising 300 μM of compound 1 in DMSO were applied to samples of pigmented reconstructed epidermis (cf. EP 1 878 790). The control is DMSO.
The melanin was quantified by image analysis on histological slices after staining with Fontana Masson dye. Each sample of coloured epidermis is photographed over its entire length using a camera connected to a microscope. The melanin is thresholded and the number of melanin pixels is measured in each field using automated image analysis software. A non-parametric statistical test is performed in order to determine the significance of the measurements (Mann-Whitney test, see FIG. 1).
The pigmented reconstructed epidermis standard study model was published by: Regnier M, Duval C, Galey J B, Philippe M, Lagrange A, Tuloup R, Schmidt R, Cellular and Molecular Biology, 1999, 45, 7, 969-980: “Keratinocyte-Melanocyte co-cultures and pigmented reconstructed human epidermis: models to study modulation of melanogenesis”.

In the case of `CCOC(=O)C1CSSCC(C)(C)C(=O)N1` (stereo not shown) [Compound 5′, ethyl 7,7-dimethyl-6-oxo-1,2,5-dithiazocane-4-carboxylate], in data set [1], the cytotoxicity entry was “non-cytotoxic” and the IC50 was 0.79 µM.

`CC1(C)CSSCC(C(=O)NCC(=O)O)NC1=O` (stereo not shown) [Compound 12′, N-[(7,7-dimethyl-6-oxo-1,2,5-dithiazocan-4-yl)carbonyl]glycine]: the IC50 with normal human melanocytes came out at 63.8 µM.

`CC(C)OC(=O)C1CSSCC(C)(C)C(=O)N1` (stereo not shown) [Compound 6′, propan-2-yl 7,7-dimethyl-6-oxo-1,2,5-dithiazocane-4-carboxylate]: the IC50 with normal human melanocytes worked out at 1.9 µM; in data set [1] it was 1.57 µM. Moreover, the cytotoxicity entry in data set [1] is listed as “non-cytotoxic”.

Consider `CCOC(=O)CNC(=O)C1CSSCC(C)(C)C(=O)N1` (stereo not shown) [Compound 8′, ethyl N-[(7,7-dimethyl-6-oxo-1,2,5-dithiazocan-4-yl)carbonyl]glycinate], for which the IC50 with normal human melanocytes was found to be 0.87 µM. Further, in data set [1], the cytotoxicity entry is recorded as “non-cytotoxic” and the IC50 stood at 1.23 µM.

Regarding `CN(C)C(=O)C1CSSCC(C)(C)C(=O)N1` (stereo not shown) [Compound 4′, N,N,7,7-tetramethyl-6-oxo-1,2,5-dithiazocane-4-carboxamide], the IC50 with normal human melanocytes stood at 4.23 µM.

With `CC1(C)CSSC[C@@H](C(=O)O)NC1=O` [Compound 1, 7,7-dimethyl-6-oxo-1,2,5-dithiazocane-4-(R)-carboxylic acid], the “depigmenting activity (melanin quantified by image analysis)” value in data set [2] was “Significant depigmenting activity”. Further, in the data set on normal human melanocytes, the IC50 came out at 62.5 µM. In addition, in data set [1], the cytotoxicity result was “non-cytotoxic” and the IC50 stood at 9.6 µM.

Regarding `COCCOCCOC(=O)C1CSSCC(C)(C)C(=O)N1` (stereo not shown) [Compound 10′, 2-(2-methoxyethoxy)ethyl 7,7-dimethyl-6-oxo-1,2,5-dithiazocane-4-carboxylate], the IC50 in the data set with normal human melanocytes came out at 5.26 µM; in data set [1], 7.62 µM. Also, the cytotoxicity result in data set [1] is recorded as “non-cytotoxic”.

For `CC1(C)CSSCC(C(=O)OCC(O)CO)NC1=O` (stereo not shown) [Compound 18′, 2,3-dihydroxypropyl 7,7-dimethyl-6-oxo-1,2,5-dithiazocane-4-carboxylate], in the data set with normal human melanocytes, the IC50 is 9.8 µM.

`CCOC(=O)C(Cc1ccccc1)NC(=O)C1CSSCC(C)(C)C(=O)N1` (stereo not shown) [Compound 9′, ethyl N-[(7,7-dimethyl-6-oxo-1,2,5-dithiazocan-4-yl)carbonyl]phenylalaninate]: the IC50 in the data set on normal human melanocytes stood at 20.8 µM.

For the compound `CC1(C)CSSCC(C(=O)NCCO)NC1=O` (stereo not shown) [Compound 7′, N-(2-hydroxyethyl)-7,7-dimethyl-6-oxo-1,2,5-dithiazocane-4-carboxamide], the IC50 in the data set on normal human melanocytes is below 0.4 µM. In data set [1], the cytotoxicity result is recorded as “non-cytotoxic” and the IC50 is 1.04 µM.

For the compound `CC1(C)CSSCC(C(N)=O)NC1=O` (stereo not shown) [Compound 3′, 7,7-dimethyl-6-oxo-1,2,5-dithiazocane-4-carboxamide], the IC50 with normal human melanocytes came out at 2.35 µM.

With `COCC(C)OCC(C)OCC(C)OC(=O)C1CSSCC(C)(C)C(=O)N1` (stereo not shown) [Compound 11′, 1-({1-[(1-methoxypropan-2-yl)oxy]propan-2-yl}oxy)propan-2-yl 7,7-dimethyl-6-oxo-1,2,5-dithiazocane-4-carboxylate], the IC50 with normal human melanocytes stood at 10.7 µM.

`CCCCCCCNC(=O)C1CSSCC(C)(C)C(=O)N1` (stereo not shown) [Compound 13′, N-heptyl-7,7-dimethyl-6-oxo-1,2,5-dithiazocane-4-carboxamide]: the IC50 in the data set with normal human melanocytes worked out at 0.66 µM.

In the case of `COC(=O)[C@@H]1CSSCC(C)(C)C(=O)N1` [Compound 2, methyl 7,7-dimethyl-6-oxo-1,2,5-dithiazocane-4(R)-carboxylate], the IC50 in the data set with normal human melanocytes came out at 13.6 µM. In addition, in data set [1], the cytotoxicity result is reported as “non-cytotoxic” and the IC50 was 0.74 µM.
